# Numbers after ± are expanded uncertainties.
# Columns and labels:
# [1] = Liquid; for mass density: 293.15 K, 101.33 kPa; for Normal boiling temperature: Fischer boiling point apparatus
# [2] = refractive index (Na D-line) (dimensionless); conditions: 298.15 K; 101.33 kPa; Liquid; Standard Abbe refractometry
Structure (SMILES),mass density [1],Normal boiling temperature [1],refractive index [2]
CC(=O)O [acetic acid],1049.42 ± 0.29 kg/m3,118.1 ± 0.2 °C,1.3713 ± 0.0007
"COC(=O)CCCCC(=O)OC [dimethyl 1,6-hexanedioate]",1061.9 ± 0.61 kg/m3,225.1 ± 0.2 °C,1.4215 ± 0.0012
O [water],,,1.3324 ± 0.0007

# From the NIST ThermoML archive (doi:10.1016/j.fluid.2004.11.025)
